# Activity calls are given as the source filed them. The rule behind the calls is not given here.
# Legend:
# [1] = system: L1210; assay: Cytotoxicity against mouse L1210 cells; type: cell-based
# [2] = Cytotoxicity against african green monkey CV1 cells assessed as zone of diameter at 0.1 ug/ml; type: cell-based; details: chlorocebus aethiops, cv-1
# [3] = Cytotoxicity against african green monkey CV1 cells assessed as zone of diameter at 0.01 ug/ml; type: cell-based; details: chlorocebus aethiops, cv-1
# [4] = system: Human alphaherpesvirus 1; assay: Antiviral activity against HSV1 in african green monkey CV1 cells at 0.01 ug/ml by plaque reduction method; type: functional, organism-based; details: CV-1
# [5] = system: Vesicular stomatitis virus; assay: Antiviral activity against VSV in BHK cells at 0.01 ug/ml by plaque reduction method; type: functional, organism-based
# [6] = Cytotoxicity against BHK cells; type: cell-based, Mesocricetus auratus; details: hamster
# [7] = system: Human alphaherpesvirus 1; assay: Antiviral activity against HSV1 in african green monkey CV1 cells at 0.1 ug/ml by plaque reduction method; type: functional, organism-based; details: CV-1
# [8] = system: Human alphaherpesvirus 1; assay: Antiviral activity against HSV1 in african green monkey CV1 cells at 1 ug/ml by plaque reduction method; type: functional, organism-based; details: CV-1
SMILES,IC50 [1] [ng/mL],inhibition zone (IZ) [2] [mm],inhibition zone (IZ) [3] [mm],Activity [4],Activity [5],Activity [6],Activity [2],Activity [7],Activity [8]
C=C1[C@@H](O)[C@@H]2O[C@]3(CC[C@H](CC[C@@H](C)[C@@H]4CC(C)=C[C@@]5(O[C@H](C[C@@](C)(O)C(=O)O)CC[C@H]5O)O4)O3)CC[C@H]2O[C@@H]1[C@@H](O)C[C@H](C)[C@H]1O[C@@]2(CC[C@H]1C)OCCC[C@H]2C,3,0,0,inactive,Active,Toxic,,,
C=C1[C@@H](O)[C@@H]2O[C@]3(CC[C@H](/C=C/[C@@H](C)[C@@H]4CC(C)=C[C@@]5(O[C@H](C[C@@](C)(O)C(=O)O)CC[C@H]5O)O4)O3)CC[C@H]2O[C@@H]1[C@@H](O)C[C@H](C)[C@H]1O[C@@]2(CC[C@H]1C)OCCC[C@H]2C [DINOPHYSISTOXIN 1],2,,0,inactive,,Toxic,Toxic,Active,Active
C=C1[C@@H](O)[C@@H]2O[C@]3(CC[C@H](/C=C/[C@@H](C)[C@@H]4CC(C)=C[C@@]5(O[C@H](C[C@@](C)(O)C(=O)O)CC[C@H]5O)O4)O3)CC[C@H]2O[C@@H]1[C@@H](O)C[C@H](C)[C@H]1O[C@@]2(CCCCO2)CC[C@H]1C [OKADAIC ACID],5,22,0,,,,,,
